Test results taken from patent publication US11066369B2, “N-(pyridin-2-yl)pyridine-sulfonamide derivatives and their use in the treatment of disease” (Novartis AG, priority 2016, dated 2021).
Structures can show the parent of a compound that is named as a salt. Where two headings read alike, the source gives them in different places.

Molecular target: T1, horseradish peroxidase (HRP) tagged delF508-CFTR (Homo sapiens, UniProt P13569, DEL508-508)
T1 construct: expressed in transfected cells
Assay: Measurement of delF508-CFTR-HRP surface expression in CFBE41o- cells;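 as to DelF508-CFTR-HRP Amax %: percent efficacy relative to reference corrector lumacaftor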
Type: cell-based
Details: CFBE41o- cells; for Emax: read-out: DelF508-CFTR-HRP Amax %; for EC50: read-out: DelF508-CFTR-HRP EC50
Summary of the method: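 CFBE41o- bronchial epithelial cells stably expressing delF508-CFTR with HRP in the fourth extracellular loop; expression induced 48h with 500 ng/mL doxycycline, then compounds added (top 10 μM, 10-point 3-fold series, ≤0.5% DMSO) for 24h at 37° C. Surface HRP measured by luminescence with cell-impermeant substrate; EC50 from logistic fit of triplicates, plate-normalized to lowest concentration; efficacy also relative to a reference corrector.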

[1] = delF508-CFTR-HRP surface expression
[2] = mean of at least two replicates

T1 sequence (P13569 with tags, fused parts or gaps DEL508-508): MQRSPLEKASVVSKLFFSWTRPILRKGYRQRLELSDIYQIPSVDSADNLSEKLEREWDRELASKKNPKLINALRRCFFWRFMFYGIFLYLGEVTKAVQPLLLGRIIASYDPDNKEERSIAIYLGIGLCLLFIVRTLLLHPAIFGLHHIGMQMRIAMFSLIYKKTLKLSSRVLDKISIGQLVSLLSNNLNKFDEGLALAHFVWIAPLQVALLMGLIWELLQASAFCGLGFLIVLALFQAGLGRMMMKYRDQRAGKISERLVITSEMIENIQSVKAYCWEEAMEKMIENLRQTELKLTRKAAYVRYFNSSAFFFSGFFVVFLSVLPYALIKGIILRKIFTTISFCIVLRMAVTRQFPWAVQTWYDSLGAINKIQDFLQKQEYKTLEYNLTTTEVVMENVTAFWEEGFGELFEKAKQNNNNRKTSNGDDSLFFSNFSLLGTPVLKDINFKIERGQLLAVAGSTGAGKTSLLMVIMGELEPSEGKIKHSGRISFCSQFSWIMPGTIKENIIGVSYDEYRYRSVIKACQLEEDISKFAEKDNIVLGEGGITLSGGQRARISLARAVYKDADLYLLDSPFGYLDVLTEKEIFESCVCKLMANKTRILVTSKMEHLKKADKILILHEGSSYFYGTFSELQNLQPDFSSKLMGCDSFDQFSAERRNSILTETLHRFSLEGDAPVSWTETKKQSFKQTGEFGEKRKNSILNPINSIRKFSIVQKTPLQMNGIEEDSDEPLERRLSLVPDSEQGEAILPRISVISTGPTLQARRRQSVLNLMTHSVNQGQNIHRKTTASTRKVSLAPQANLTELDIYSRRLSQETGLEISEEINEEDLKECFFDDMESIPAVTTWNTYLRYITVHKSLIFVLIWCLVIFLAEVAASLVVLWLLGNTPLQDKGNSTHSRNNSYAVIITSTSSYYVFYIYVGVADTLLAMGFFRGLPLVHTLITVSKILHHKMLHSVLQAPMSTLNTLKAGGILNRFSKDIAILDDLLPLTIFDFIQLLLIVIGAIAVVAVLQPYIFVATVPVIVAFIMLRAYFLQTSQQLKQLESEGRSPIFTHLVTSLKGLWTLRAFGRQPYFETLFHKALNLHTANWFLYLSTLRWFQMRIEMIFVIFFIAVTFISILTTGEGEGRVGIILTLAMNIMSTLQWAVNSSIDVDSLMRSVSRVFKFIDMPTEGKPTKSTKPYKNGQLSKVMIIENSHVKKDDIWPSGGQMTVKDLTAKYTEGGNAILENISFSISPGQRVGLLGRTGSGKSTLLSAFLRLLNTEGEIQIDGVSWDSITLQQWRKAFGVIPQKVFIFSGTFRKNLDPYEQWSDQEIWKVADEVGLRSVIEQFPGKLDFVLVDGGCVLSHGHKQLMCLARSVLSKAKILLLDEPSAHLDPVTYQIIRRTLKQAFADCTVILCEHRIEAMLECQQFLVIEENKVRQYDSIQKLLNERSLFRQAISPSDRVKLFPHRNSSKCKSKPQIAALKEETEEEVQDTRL

Emax [1] [%] | EC50 [1] [nM] | EC50 [2] [nM] | Emax (surface expression Amax) [%] | SMILES
154 | 2740 |  |  | Cc1ccccc1-c1nc(NS(=O)(=O)c2cccc(N3CCNC[C@H]3C(=O)O)n2)ccc1C(F)(F)F [Example 354, (2S)-1-(6-{[6-(2-methylphenyl)-5-(trifluoromethyl)pyridin-2-yl]sulfamoyl}pyridin-2-yl)piperazine-2-carboxylic Acid]
 |  | 2410 |  | Cc1ccccc1-c1nc(NS(=O)(=O)c2cccc(N3CCC[C@@](C)(C(=O)O)C3)n2)ccc1Cl [Example 447, (R)-1-(6-(N-(5-chloro-6-(o-tolyl)pyridin-2-yl)sulfamoyl)pyridin-2-yl)-3-methylpiperidine-3-carboxylic Acid]
 |  | 576 | 906 | C[C@@]1(C(=O)O)CCCN(c2cccc(S(=O)(=O)Nc3ccc(C(F)(F)F)c(-c4ccccc4C4CC4)n3)n2)C1 [Example 413, (R)-1-(6-(N-(6-(2-cyclopropylphenyl)-5-(trifluoromethyl)pyridin-2-yl)sulfamoyl)pyridin-2-yl)-3-methylpiperidine-3-carboxylic Acid]
 |  | 2360 | 332 | Cc1ccccc1-c1nc(NS(=O)(=O)c2cccc(NC3CCC(C(=O)O)C3)n2)ccc1C(F)(F)F (mixture of isomers) [Example 459, 3-((6-(N-(6-(o-tolyl)-5-(trifluoromethyl)pyridin-2-yl)sulfamoyl)pyridin-2-yl)amino)cyclopentanecarboxylic Acid]
59.8 | 3800 |  |  | COC(=O)C1(O)CCN(c2cccc(S(=O)(=O)Nc3ccc(Cl)c(-c4c(C)cccc4C)n3)n2)CC1 [Example 260, methyl 1-(6-{[5-chloro-6-(2,6-dimethylphenyl)pyridin-2-yl]sulfamoyl}pyridin-2-yl)-4-hydroxypiperidine-4-carboxylate]
523 | 1350 |  |  | Cc1ccccc1-c1nc(NS(=O)(=O)c2cccc(N)n2)ccc1Cl [Example 14, 6-Amino-N-(5-chloro-6-(o-tolyl)pyridin-2-yl)pyridine-2-sulfonamide]
19 | 3750 |  |  | Cc1cccc(C)c1-c1nc(NS(=O)(=O)c2cccc(N)n2)c(F)cc1Cl [Example 95, 6-amino-N-(5-chloro-6-(2,6-dimethylphenyl)-3-fluoropyridin-2-yl)pyridine-2-sulfonamide]
616 | 705 |  |  | CC1(C(=O)O)CCN(c2cccc(S(=O)(=O)Nc3ccc(C(F)(F)F)c(-c4ccccc4C4CCC4)n3)n2)CC1 [Example 363, 1-(6-(N-(6-(2-cyclobutylphenyl)-5-(trifluoromethyl)pyridin-2-yl)sulfamoyl)pyridin-2-yl)-4-methylpiperidine-4-carboxylic Acid]
124 | 942 |  |  | Cc1ccc(OC(F)(F)F)cc1-c1nc(NS(=O)(=O)c2cccc(N)n2)ccc1C(F)(F)F [Example 82, 6-amino-N-(6-(2-methyl-5-(trifluoromethoxy)phenyl)-5-(trifluoromethyl)pyridin-2-yl)pyridine-2-sulfonamide]
629 | 913 |  |  | CC(C)c1ccccc1-c1nc(NS(=O)(=O)c2cccc(N3CCC[C@H](C(=O)O)C3)n2)ccc1C(F)(F)F [Example 376, (S)-1-(6-(N-(6-(2-isopropylphenyl)-5-(trifluoromethyl)pyridin-2-yl)sulfamoyl)pyridin-2-yl)piperidine-3-carboxylic Acid]
141 | 2300 |  |  | Nc1cccc(S(=O)(=O)Nc2ccc(C(F)(F)F)c(-c3cccc(C(F)(F)F)c3)n2)n1 [Example 79, 6-amino-N-(5-(trifluoromethyl)-6-(3-(trifluoromethyl)phenyl)pyridin-2-yl)pyridine-2-sulfonamide]
602 | 573 |  |  | COC(=O)C1(C)CCN(c2cccc(S(=O)(=O)Nc3ccc(C(F)(F)F)c(-c4ccccc4C4CC4)n3)n2)CC1 [Example 236, methyl 1-(6-(N-(6-(2-cyclopropylphenyl)-5-(trifluoromethyl)pyridin-2-yl)sulfamoyl)pyridin-2-yl)-4-methylpiperidine-4-carboxylate]
266 | 1760 |  |  | Cc1ccccc1-c1nc(NS(=O)(=O)c2cccc(N3CCC(C)(C(=O)O)C3)n2)ccc1C(F)(F)F (stereo not drawn) [Example 336, 3-methyl-1-(6-{[6-(2-methylphenyl)-5-(trifluoromethyl)pyridin-2-yl]sulfamoyl}pyridin-2-yl)pyrrolidine-3-carboxylic Acid]
 |  | 436 | 571 | CC(C)Oc1ccc(Cl)cc1-c1nc(NS(=O)(=O)c2cccc(N3CCCC(C)(C(=O)O)C3)n2)ccc1C(F)(F)F (stereo not drawn) [Example 433, 1-(6-(N-(6-(5-chloro-2-isopropoxyphenyl)-5-(trifluoromethyl)pyridin-2-yl)sulfamoyl)pyridin-2-yl)-3-methylpiperidine-3-carboxylic Acid]
152 | 2600 |  |  | CC1(C(=O)O)CCN(c2cccc(S(=O)(=O)Nc3ccc(Cl)c(-c4ccc(F)cc4Cl)n3)n2)CC1 [Example 243, 1-(6-(N-(5-chloro-6-(2-chloro-4-fluorophenyl)pyridin-2-yl)sulfamoyl)pyridin-2-yl)-4-methylpiperidine-4-carboxylic Acid]
270 | 1780 |  |  | Cc1ccc(F)c(-c2nc(NS(=O)(=O)c3cccc(N)n3)ccc2Cl)c1Cl [Example 58, 6-amino-N-(5-chloro-6-(2-chloro-6-fluoro-3-methylphenyl)pyridin-2-yl)pyridine-2-sulfonamide]
105 | 4000 |  |  | Cc1cccc(C)c1-c1nc(NS(=O)(=O)c2cccc(N3CCC(N)(C(=O)O)CC3)n2)ccc1Cl [Example 269, 4-amino-1-(6-{[5-chloro-6-(2,6-dimethylphenyl)pyridin-2-yl]sulfamoyl}pyridin-2-yl)piperidine-4-carboxylic Acid Hydrochloride]
50 | 3780 |  |  | N#Cc1ccccc1-c1nc(NS(=O)(=O)c2cccc(N)n2)ccc1Cl [Example 90, 6-amino-N-(5-chloro-6-(2-cyanophenyl)pyridin-2-yl)pyridine-2-sulfonamide]
258 | 1100 |  |  | Nc1cccc(S(=O)(=O)Nc2ccc(Cl)c(-c3ccccc3OC(F)(F)F)n2)n1 [Example 59, 6-amino-N-(5-chloro-6-(2-(trifluoromethoxy)phenyl)pyridin-2-yl)pyridine-2-sulfonamide]
 |  | 1630 | 588 | CCc1ccccc1-c1nc(NS(=O)(=O)c2cccc(N3CCCC(C)(C(=O)O)C3)n2)ccc1Cl (stereo not drawn) [Example 387, 1-(6-(N-(5-chloro-6-(2-ethylphenyl)pyridin-2-yl)sulfamoyl)pyridin-2-yl)-3-methylpiperidine-3-carboxylic Acid]
 |  | 1990 | 271 | COc1ccc(NS(=O)(=O)c2cccc(N3CCC[C@@](C)(C(=O)O)C3)n2)nc1-c1ccccc1C1CC1 [Example 408, (R)-1-(6-(N-(6-(2-cyclopropylphenyl)-5-methoxypyridin-2-yl)sulfamoyl)pyridin-2-yl)-3-methylpiperidine-3-carboxylic Acid]
215 | 3070 |  |  | Cc1ccccc1-c1nc(NS(=O)(=O)c2cccc(N)n2)ccc1C1CC1 [Example 66, 6-amino-N-(5-cyclopropyl-6-(o-tolyl)pyridin-2-yl)pyridine-2-sulfonamide]
95.9 | 3700 |  |  | COc1cc(NS(=O)(=O)c2cccc(N3CC(C)(O)C3)n2)nc(-c2c(C)cccc2C)c1 [Example 206, N-(6-(2,6-dimethylphenyl)-4-methoxypyridin-2-yl)-6-(3-hydroxy-3-methylazetidin-1-yl)pyridine-2-sulfonamide]
 |  | 2390 | 644 | Cc1ccccc1-c1nc(NS(=O)(=O)c2cccc(N3CCC4(CC4C(=O)O)C3)n2)ccc1C(F)(F)F (stereo not drawn) [Example 419, 5-(6-(N-(6-(o-tolyl)-5-(trifluoromethyl)pyridin-2-yl)sulfamoyl)pyridin-2-yl)-5-azaspiro[2.4]heptane-1-carboxylic Acid]
127 | 1980 |  |  | Cc1cccc(C)c1-c1nc(NS(=O)(=O)c2ccc(Br)c(N)n2)ccc1Cl [Example 81, 6-amino-5-bromo-N-(5-chloro-6-(2,6-dimethylphenyl)pyridin-2-yl)pyridine-2-sulfonamide]
53.2 | 4970 |  |  | COc1cc(NS(=O)(=O)c2cccc(N3CCNCC3)n2)nc(-c2c(C)cccc2C)c1 [Example 139, N-(6-(2,6-dimethylphenyl)-4-methoxypyridin-2-yl)-6-(piperazin-1-yl)pyridine-2-sulfonamide]
546 | 670 |  |  | Cc1ccccc1-c1nc(NS(=O)(=O)c2cccc(N3CCC34CN(C(=O)OC(C)(C)C)C4)n2)ccc1C(F)(F)F [Example 301, tert-butyl 1-(6-(N-(6-(o-tolyl)-5-(trifluoromethyl)pyridin-2-yl)sulfamoyl)pyridin-2-yl)-1,6-diazaspiro[3.3]heptane-6-carboxylate]

SMILES | Emax [1] [%] | EC50 [1] [nM] | EC50 [2] [nM] | Emax (surface expression Amax) [%]
Cc1ccccc1-c1nc(NS(=O)(=O)c2cccc(N3CCN(C(=O)OC(C)(C)C)[C@H](C(=O)O)C3)n2)ccc1C(F)(F)F [Example 334, (2S)-1-[(tert-butoxy)carbonyl]-4-(6-{[6-(2-methylphenyl)-5-(trifluoromethyl)pyridin-2-yl]sulfamoyl}pyridin-2-yl)piperazine-2-carboxylic Acid] | 164 | 2470 |  | 
Cc1ccccc1-c1nc(NS(=O)(=O)c2cccc(N3CCN(C(=O)OC(C)(C)C)C[C@@H]3C(=O)O)n2)ccc1C(F)(F)F [Example 347, (2R)-4-[(tert-butoxy)carbonyl]-1-(6-{[6-(2-methylphenyl)-5-(trifluoromethyl)pyridin-2-yl]sulfamoyl}pyridin-2-yl)piperazine-2-carboxylic Acid] | 245 | 1890 |  | 
